ChEMBL document CHEMBL4507317, “Data for DCP probe BAY-899” (2021)

What was measured:
[1] = molecular target: Ribosomal protein S6 kinase beta-1 (Homo sapiens) (UniProt P23443); conditions: Compound concentration 1000.0 nM
[2] = molecular target: Serine/threonine-protein kinase Nek3 (Homo sapiens) (UniProt P51956); conditions: Compound concentration 1000.0 nM
[3] = molecular target: Serine/threonine-protein kinase PknB (Mycobacterium tuberculosis) (UniProt P9WI81); conditions: Compound concentration 1000.0 nM
[4] = test system: Phosphatidylinositol 4,5-bisphosphate 3-kinase catalytic subunit alpha isoform (Homo sapiens), P42336 [I800L]; conditions: Compound concentration 1000.0 nM
[5] = molecular target: Alpha-2B adrenergic receptor (Homo sapiens) (UniProt P18089); conditions: Compound concentration 10.0 uM
[6] = molecular target: Serine/threonine-protein kinase tousled-like 2 (Homo sapiens) (UniProt Q86UE8); conditions: Compound concentration 1000.0 nM
Serine/threonine-protein kinase tousled-like 2 (Homo sapiens), sequence (Q86UE8 whole entry, looked up): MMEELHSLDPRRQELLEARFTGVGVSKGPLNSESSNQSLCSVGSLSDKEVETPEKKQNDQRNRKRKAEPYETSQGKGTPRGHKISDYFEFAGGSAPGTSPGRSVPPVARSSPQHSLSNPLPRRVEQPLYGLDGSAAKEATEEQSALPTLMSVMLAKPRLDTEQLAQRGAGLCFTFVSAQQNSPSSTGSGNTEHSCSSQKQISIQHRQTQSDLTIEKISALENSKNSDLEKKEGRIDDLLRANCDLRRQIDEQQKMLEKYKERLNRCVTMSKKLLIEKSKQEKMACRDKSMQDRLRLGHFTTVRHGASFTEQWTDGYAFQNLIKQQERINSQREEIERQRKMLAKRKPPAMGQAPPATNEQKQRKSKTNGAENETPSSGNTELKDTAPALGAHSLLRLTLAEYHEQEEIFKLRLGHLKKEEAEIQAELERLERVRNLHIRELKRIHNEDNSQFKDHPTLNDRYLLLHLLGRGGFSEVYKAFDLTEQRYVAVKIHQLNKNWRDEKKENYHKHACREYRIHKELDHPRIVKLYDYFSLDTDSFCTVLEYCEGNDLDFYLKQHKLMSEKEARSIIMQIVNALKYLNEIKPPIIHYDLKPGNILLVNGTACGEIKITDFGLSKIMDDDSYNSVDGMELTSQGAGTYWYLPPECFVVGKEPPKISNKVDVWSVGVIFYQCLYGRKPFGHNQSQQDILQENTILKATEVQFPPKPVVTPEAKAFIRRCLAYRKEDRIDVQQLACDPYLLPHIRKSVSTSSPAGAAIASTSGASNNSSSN

[7] = molecular target: Serine/threonine-protein kinase PAK 5 (Homo sapiens) (UniProt Q9P286); conditions: Compound concentration 1000.0 nM
[8] = molecular target: Phosphatidylinositol 4,5-bisphosphate 3-kinase catalytic subunit gamma isoform (Homo sapiens) (UniProt P48736); conditions: Compound concentration 1000.0 nM
[9] = molecular target: Testis-specific serine/threonine-protein kinase 3 (Homo sapiens) (UniProt Q96PN8); conditions: Compound concentration 1000.0 nM
[10] = molecular target: Mitogen-activated protein kinase kinase kinase kinase 2 (Homo sapiens) (UniProt Q12851); conditions: Compound concentration 1000.0 nM
Mitogen-activated protein kinase kinase kinase kinase 2 (Homo sapiens), sequence (Q12851 whole entry): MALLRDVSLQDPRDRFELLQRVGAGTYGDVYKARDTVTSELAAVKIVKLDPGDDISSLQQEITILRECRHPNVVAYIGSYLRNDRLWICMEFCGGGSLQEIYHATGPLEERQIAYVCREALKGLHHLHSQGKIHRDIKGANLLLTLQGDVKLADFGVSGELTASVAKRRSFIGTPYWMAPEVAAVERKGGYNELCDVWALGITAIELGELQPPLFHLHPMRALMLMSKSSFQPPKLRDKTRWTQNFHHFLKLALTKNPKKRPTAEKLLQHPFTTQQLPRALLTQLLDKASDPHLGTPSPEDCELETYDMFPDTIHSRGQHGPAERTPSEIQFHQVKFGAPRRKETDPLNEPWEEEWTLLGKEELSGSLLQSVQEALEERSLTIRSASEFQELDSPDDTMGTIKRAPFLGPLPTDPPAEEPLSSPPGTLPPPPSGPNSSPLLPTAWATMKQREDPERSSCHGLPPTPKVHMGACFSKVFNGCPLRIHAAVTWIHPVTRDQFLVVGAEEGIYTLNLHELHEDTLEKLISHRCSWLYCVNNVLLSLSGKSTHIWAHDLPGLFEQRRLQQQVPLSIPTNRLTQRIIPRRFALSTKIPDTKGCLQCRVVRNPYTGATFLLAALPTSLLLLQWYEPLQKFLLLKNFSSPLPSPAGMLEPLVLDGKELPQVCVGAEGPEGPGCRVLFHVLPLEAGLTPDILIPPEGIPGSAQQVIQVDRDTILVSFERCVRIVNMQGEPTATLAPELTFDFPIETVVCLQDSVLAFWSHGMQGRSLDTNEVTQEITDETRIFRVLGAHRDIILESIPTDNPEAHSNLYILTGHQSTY

[11] = molecular target: Tyrosine-protein kinase Fgr (Homo sapiens) (UniProt P09769); conditions: Compound concentration 1000.0 nM
[12] = molecular target: G protein-coupled receptor kinase 3 (Homo sapiens) (UniProt P35626); conditions: Compound concentration 1000.0 nM
[13] = molecular target: Mitogen-activated protein kinase kinase kinase 3 (Homo sapiens) (UniProt Q99759); conditions: Compound concentration 1000.0 nM
[14] = molecular target: Histamine H4 receptor (Homo sapiens) (UniProt Q9H3N8); conditions: Compound concentration 10.0 uM
[15] = test system: Phosphatidylinositol 4,5-bisphosphate 3-kinase catalytic subunit alpha isoform (Homo sapiens), P42336 [E545A]; conditions: Compound concentration 1000.0 nM
[16] = molecular target: cGMP-dependent protein kinase 1 (Homo sapiens) (UniProt Q13976); conditions: Compound concentration 1000.0 nM
[17] = molecular target: Serine/threonine-protein kinase PAK 2 (Homo sapiens) (UniProt Q13177); conditions: Compound concentration 1000.0 nM
[18] = molecular target: Fibroblast growth factor receptor 3 (Homo sapiens) (UniProt P22607); conditions: Compound concentration 1000.0 nM
Fibroblast growth factor receptor 3 (Homo sapiens), sequence (P22607 23-806 limits assumed): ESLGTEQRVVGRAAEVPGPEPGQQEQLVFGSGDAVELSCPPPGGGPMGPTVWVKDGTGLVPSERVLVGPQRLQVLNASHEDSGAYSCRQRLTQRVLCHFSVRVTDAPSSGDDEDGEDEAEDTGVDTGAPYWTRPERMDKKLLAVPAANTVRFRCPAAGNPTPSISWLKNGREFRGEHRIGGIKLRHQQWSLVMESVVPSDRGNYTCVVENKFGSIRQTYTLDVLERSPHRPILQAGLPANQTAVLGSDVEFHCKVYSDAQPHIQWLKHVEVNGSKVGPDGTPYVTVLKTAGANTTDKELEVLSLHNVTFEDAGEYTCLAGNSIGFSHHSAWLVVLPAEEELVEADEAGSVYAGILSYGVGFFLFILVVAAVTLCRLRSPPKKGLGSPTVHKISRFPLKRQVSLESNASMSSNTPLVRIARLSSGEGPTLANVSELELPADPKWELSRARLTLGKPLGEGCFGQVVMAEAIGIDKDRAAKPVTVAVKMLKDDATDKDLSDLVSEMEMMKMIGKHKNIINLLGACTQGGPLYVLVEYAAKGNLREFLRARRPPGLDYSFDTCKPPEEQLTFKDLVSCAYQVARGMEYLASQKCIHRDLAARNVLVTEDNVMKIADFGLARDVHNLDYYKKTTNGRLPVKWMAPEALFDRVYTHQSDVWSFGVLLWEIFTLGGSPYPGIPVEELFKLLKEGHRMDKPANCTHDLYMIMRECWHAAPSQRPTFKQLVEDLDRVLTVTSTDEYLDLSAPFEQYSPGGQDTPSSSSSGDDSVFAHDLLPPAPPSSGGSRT

[19] = molecular target: Kappa-type opioid receptor (Homo sapiens, UniProt P41145); conditions: Compound concentration 10.0 uM
[20] = test system: Epidermal growth factor receptor (Homo sapiens), P00533 [L858R]; conditions: Compound concentration 1000.0 nM
[21] = molecular target: D(1A) dopamine receptor (Homo sapiens) (UniProt P21728); conditions: Compound concentration 10.0 uM
[22] = molecular target: SRSF protein kinase 1 (Homo sapiens) (UniProt Q96SB4); conditions: Compound concentration 1000.0 nM
[23] = molecular target: Serine/threonine-protein kinase tousled-like 1 (Homo sapiens) (UniProt Q9UKI8); conditions: Compound concentration 1000.0 nM
[24] = molecular target: Sigma intracellular receptor 2 (Homo sapiens, UniProt Q5BJF2); conditions: Compound concentration 10.0 uM
Sigma intracellular receptor 2, sequence (Q5BJF2 whole entry): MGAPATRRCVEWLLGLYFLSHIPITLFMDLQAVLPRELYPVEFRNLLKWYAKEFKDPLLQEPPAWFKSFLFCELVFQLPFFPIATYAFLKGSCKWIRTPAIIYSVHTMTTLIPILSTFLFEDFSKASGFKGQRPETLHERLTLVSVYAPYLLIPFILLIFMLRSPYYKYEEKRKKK

[25] = molecular target: MAP kinase-activated protein kinase 5 (Homo sapiens) (UniProt Q8IW41); conditions: Compound concentration 1000.0 nM
[26] = molecular target: Mitogen-activated protein kinase 11 (Homo sapiens) (UniProt Q15759); conditions: Compound concentration 1000.0 nM
[27] = molecular target: Cyclin-dependent kinase 17 (Homo sapiens) (UniProt Q00537); conditions: Compound concentration 1000.0 nM
[28] = molecular target: Focal adhesion kinase 1 (Homo sapiens) (UniProt Q05397); conditions: Compound concentration 1000.0 nM
[29] = molecular target: Myosin light chain kinase 2, skeletal/cardiac muscle (Homo sapiens) (UniProt Q9H1R3); conditions: Compound concentration 1000.0 nM
[30] = molecular target: Ephrin type-B receptor 4 (Homo sapiens) (UniProt P54760); conditions: Compound concentration 1000.0 nM
Ephrin type-B receptor 4 (Homo sapiens), sequence (P54760 whole entry): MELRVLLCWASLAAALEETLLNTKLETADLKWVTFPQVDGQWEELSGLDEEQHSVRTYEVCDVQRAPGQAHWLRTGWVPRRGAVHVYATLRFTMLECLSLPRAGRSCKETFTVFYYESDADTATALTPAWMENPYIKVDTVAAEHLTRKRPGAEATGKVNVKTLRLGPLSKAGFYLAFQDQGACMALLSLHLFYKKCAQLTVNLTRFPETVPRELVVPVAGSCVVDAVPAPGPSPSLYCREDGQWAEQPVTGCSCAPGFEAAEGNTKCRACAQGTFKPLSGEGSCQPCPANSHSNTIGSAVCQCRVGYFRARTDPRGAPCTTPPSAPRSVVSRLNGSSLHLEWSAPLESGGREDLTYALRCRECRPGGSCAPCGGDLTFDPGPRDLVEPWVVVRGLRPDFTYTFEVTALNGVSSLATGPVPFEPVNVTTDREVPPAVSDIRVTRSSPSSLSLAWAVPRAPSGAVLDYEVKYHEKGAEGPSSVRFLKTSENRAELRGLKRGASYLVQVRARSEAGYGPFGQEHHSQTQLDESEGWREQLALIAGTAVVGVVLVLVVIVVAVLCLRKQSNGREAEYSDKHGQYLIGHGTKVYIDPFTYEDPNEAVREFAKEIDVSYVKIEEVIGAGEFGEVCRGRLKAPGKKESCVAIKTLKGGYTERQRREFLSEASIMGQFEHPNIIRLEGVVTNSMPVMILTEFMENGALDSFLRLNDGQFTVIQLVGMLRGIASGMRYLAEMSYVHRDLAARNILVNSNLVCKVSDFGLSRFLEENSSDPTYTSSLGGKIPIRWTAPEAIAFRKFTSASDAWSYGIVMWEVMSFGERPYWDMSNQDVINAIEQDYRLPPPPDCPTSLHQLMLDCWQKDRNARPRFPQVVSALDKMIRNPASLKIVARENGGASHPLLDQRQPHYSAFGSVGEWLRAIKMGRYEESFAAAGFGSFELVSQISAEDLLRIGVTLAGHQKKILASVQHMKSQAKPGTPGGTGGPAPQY

[31] = molecular target: Mitogen-activated protein kinase 4 (Homo sapiens) (UniProt P31152); conditions: Compound concentration 1000.0 nM
[32] = molecular target: Non-receptor tyrosine-protein kinase TNK1 (Homo sapiens) (UniProt Q13470); conditions: Compound concentration 1000.0 nM
[33] = molecular target: Calcium/calmodulin-dependent protein kinase type 1D (Homo sapiens) (UniProt Q8IU85); conditions: Compound concentration 1000.0 nM
[34] = molecular target: Vascular endothelial growth factor receptor 3 (Homo sapiens) (UniProt P35916); conditions: Compound concentration 1000.0 nM
[35] = molecular target: Tyrosine-protein kinase BTK (Homo sapiens) (UniProt Q06187); conditions: Compound concentration 1000.0 nM
[36] = molecular target: Serine/threonine-protein kinase D1 (Homo sapiens) (UniProt Q15139); conditions: Compound concentration 1000.0 nM
[37] = molecular target: Cyclin-dependent kinase 7 (Homo sapiens) (UniProt P50613); conditions: Compound concentration 1000.0 nM
Cyclin-dependent kinase 7 (Homo sapiens), sequence (P50613 whole entry): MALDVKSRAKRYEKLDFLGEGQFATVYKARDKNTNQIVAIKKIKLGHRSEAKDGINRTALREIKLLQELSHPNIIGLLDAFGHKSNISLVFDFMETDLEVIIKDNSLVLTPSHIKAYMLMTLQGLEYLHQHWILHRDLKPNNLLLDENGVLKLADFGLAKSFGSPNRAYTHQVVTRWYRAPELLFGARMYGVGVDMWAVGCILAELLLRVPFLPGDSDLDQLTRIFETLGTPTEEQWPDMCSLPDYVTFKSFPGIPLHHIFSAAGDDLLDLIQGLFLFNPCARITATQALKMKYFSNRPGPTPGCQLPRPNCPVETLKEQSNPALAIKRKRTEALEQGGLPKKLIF

[38] = molecular target: Mitogen-activated protein kinase kinase kinase 1 (Homo sapiens) (UniProt Q13233); conditions: Compound concentration 1000.0 nM
[39] = molecular target: Serine/threonine-protein kinase SIK2 (Homo sapiens) (UniProt Q9H0K1); conditions: Compound concentration 1000.0 nM
[40] = molecular target: Serine/threonine-protein kinase NLK (Homo sapiens) (UniProt Q9UBE8); conditions: Compound concentration 1000.0 nM
Serine/threonine-protein kinase NLK (Homo sapiens), sequence (Q9UBE8 whole entry, canonical isoform): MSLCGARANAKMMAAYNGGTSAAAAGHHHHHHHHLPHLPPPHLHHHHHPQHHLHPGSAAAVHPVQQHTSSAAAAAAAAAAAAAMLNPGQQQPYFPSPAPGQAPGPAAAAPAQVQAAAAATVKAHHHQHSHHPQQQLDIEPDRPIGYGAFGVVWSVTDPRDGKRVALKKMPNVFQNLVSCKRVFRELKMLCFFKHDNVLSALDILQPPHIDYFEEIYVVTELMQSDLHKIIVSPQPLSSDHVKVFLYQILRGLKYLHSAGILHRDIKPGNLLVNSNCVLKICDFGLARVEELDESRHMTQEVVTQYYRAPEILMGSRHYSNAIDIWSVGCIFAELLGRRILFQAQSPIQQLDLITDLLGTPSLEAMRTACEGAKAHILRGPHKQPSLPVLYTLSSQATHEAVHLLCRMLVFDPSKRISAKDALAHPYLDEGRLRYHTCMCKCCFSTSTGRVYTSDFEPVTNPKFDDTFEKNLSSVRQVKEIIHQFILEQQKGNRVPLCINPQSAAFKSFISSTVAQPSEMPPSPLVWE

[41] = test system: Phosphatidylinositol 4,5-bisphosphate 3-kinase catalytic subunit alpha isoform (Homo sapiens), P42336 [C420R]; conditions: Compound concentration 1000.0 nM
[42] = molecular target: Phosphatidylinositol 5-phosphate 4-kinase type-2 gamma (Homo sapiens) (UniProt Q8TBX8); conditions: Compound concentration 1000.0 nM
[43] = molecular target: Muscarinic acetylcholine receptor M2 (Homo sapiens) (UniProt P08172); conditions: Compound concentration 10.0 uM
[44] = molecular target: Calcium/calmodulin-dependent protein kinase type II subunit delta (Homo sapiens) (UniProt Q13557); conditions: Compound concentration 1000.0 nM
[45] = molecular target: Macrophage colony-stimulating factor 1 receptor (Homo sapiens) (UniProt P07333); conditions: Compound concentration 1000.0 nM

Ribosomal protein S6 kinase beta-1 (Homo sapiens), sequence (P23443 whole entry, looked up): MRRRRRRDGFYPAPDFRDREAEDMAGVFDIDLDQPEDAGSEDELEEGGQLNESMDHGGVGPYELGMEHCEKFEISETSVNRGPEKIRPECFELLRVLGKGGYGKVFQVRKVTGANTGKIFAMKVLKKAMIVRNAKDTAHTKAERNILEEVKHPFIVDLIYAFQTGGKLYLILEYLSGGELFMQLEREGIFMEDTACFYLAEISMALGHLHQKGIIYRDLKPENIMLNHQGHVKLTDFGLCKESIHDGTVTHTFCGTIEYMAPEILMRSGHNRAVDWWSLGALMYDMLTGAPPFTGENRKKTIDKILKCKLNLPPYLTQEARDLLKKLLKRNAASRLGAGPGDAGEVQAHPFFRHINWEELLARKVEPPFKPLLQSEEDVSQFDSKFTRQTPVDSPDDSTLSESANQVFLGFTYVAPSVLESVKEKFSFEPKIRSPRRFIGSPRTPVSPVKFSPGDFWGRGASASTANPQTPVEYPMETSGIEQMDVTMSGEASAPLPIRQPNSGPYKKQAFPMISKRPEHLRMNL

O=C(Nc1ccc(Oc2ccc(F)cc2)cc1)N1CCc2ncccc2[C@H]1c1ccc(F)cc1 [BAY-897]
residual activity [1]: 100% | residual activity [2]: 64% | residual activity [3]: 86% | residual activity [4]: 66% | inhibition [5]: 49.6% | residual activity [6]: 100% | residual activity [7]: 100% | residual activity [8]: 87% | residual activity [9]: 98% | residual activity [10]: 95% | residual activity [11]: 100% | residual activity [12]: 95% | residual activity [13]: 87% | inhibition [14]: 7.56% | residual activity [15]: 100% | residual activity [16]: 91% | residual activity [17]: 52% | residual activity [18]: 83% | inhibition [19]: 79.3% | residual activity [20]: 96% | inhibition [21]: 39.1% | residual activity [22]: 94% | residual activity [23]: 100% | inhibition [24]: 80.8% | residual activity [25]: 75% | residual activity [26]: 100% | residual activity [27]: 96% | residual activity [28]: 100% | residual activity [29]: 100% | residual activity [30]: 100% | residual activity [31]: 95% | residual activity [32]: 96% | residual activity [33]: 100% | residual activity [34]: 96% | residual activity [35]: 93% | residual activity [36]: 94% | residual activity [37]: 77% | residual activity [38]: 87% | residual activity [39]: 100% | residual activity [40]: 87% | residual activity [41]: 100% | residual activity [42]: 94% | inhibition [43]: -1.78% | residual activity [44]: 89% | residual activity [45]: 95%

O=C(Nc1cnc(Oc2ccc(F)cc2)nc1)N1CCc2ncccc2[C@@H]1c1ccc(F)cc1 [BAY-899]
residual activity [1]: 89% | residual activity [2]: 67% | residual activity [3]: 90% | residual activity [4]: 69% | inhibition [5]: 9.66% | residual activity [6]: 89% | residual activity [7]: 95% | residual activity [8]: 85% | residual activity [9]: 86% | residual activity [10]: 100% | residual activity [11]: 100% | residual activity [12]: 96% | residual activity [13]: 97% | inhibition [14]: -4.41% | residual activity [15]: 98% | residual activity [16]: 89% | residual activity [17]: 59% | residual activity [18]: 89% | inhibition [19]: 56.3% | residual activity [20]: 92% | inhibition [21]: 23.7% | residual activity [22]: 100% | residual activity [23]: 90% | inhibition [24]: 53.2% | residual activity [25]: 91% | residual activity [26]: 84% | residual activity [27]: 97% | residual activity [28]: 100% | residual activity [29]: 90% | residual activity [30]: 100% | residual activity [31]: 95% | residual activity [32]: 97% | residual activity [33]: 100% | residual activity [34]: 96% | residual activity [35]: 92% | residual activity [36]: 100% | residual activity [37]: 100% | residual activity [38]: 89% | residual activity [39]: 89% | residual activity [40]: 73% | residual activity [41]: 100% | residual activity [42]: 86% | inhibition [43]: -5.1% | residual activity [44]: 92% | residual activity [45]: 93%
